Values after ≈ are worked out from the molar mass of the structure shown. Positions of bridges follow the written chain, without caps; N, C: chain ends. Non-standard residues stand in square brackets, D forms with d. Residues, ends and D or L forms follow the SMILES beside them. S5 = C=CCCC[C@](C)(N)C(=O)O; Dab = NCC[C@H](N)C(=O)O; Dap = NC[C@H](N)C(=O)O
Assays:
S. aureus = format: cell-based, Staphylococcus aureus
Experimental: (§1) Antimicrobial Activity Assay: The following microbroth dilution protocol was adapted from CLSI to determine the minimum inhibitory concentration (MIC) of StAMPs. Briefly, Mueller-Hinton broth (MHB) or cation-adjusted Mueller-Hinton broth (MHB II) was prepared and autoclaved. Then, a colony of bacterial cells was picked and grown overnight in broth at 37° C. and then diluted and allowed to grow again for 3-4 hours. Serial dilutions of peptide stocks in water (10 μl) were prepared using clear round-bottom polypropylene 96-well plates. Then 90 μl of bacteria in broth was added to give a final inoculum of 5×10^5 CFU/ml. The plates were then covered with porous tape to reduce evaporation and incubated for 20-24 hours at 37° C. The MIC was the minimum peptide concentration at which no visible bacterial growth was observed.
(§2) Renal toxicity was measured after 90 minutes of incubation, while liver toxicity was measured after 48 hours of incubation with StAMPs. N/A=not tested. The following apply to all peptides (i.e., StAMPs) listed in Tables A-C: Crosslinks (X^1—X^2 and X^3—X^4): (alk); N-terminus: —NH2; C-terminus: amidated with —NH2; counterion: Cl^−. The following apply to all peptides (i.e., StAMPs) listed in Table D: Crosslinks (X^1—X^2 and X^3—X^4): (alk); N-terminus: —NH2; C-terminus: as shown in table; counterion: Cl^−.

in vitro = format: cell-based; settings: human, Inhibitory Concentration at 50% Cytotoxicity (IC50) Human Liver Cells (HepG2)
Experimental: Cell culture: RPTEC were maintained in MEM media supplemented with growth factors. HEPG2 cell line was maintained in Eagle's Minimum Essential Medium (EMEM) supplemented with fetal bovine serum to a final concentration of 10%.
48 hours cytotoxicity assay: Cells were plated in a 96-well format, and after 4 hour incubation to allow attachment, serial dilutions of StAMPs from a 5 mg/mL water stock, or vehicle, were then added to the cells in a final volume of 100 μl. After incubating at 37° C. for 48 hours, 100 μl of CellTiter-Glo® reagent was added to the cells, and the plates were incubated 10 minutes at room temperature. Luminescence was then measured on a microplate reader.
as §2

K. pneumoniae = format: cell-based, Klebsiella pneumoniae
Experimental: as §1, §2

E. coli = format: cell-based, Escherichia coli
Experimental: as §1, §2

P. aeruginosa = format: cell-based, Pseudomonas aeruginosa
Experimental: as §1, §2
StAMP Micelle Formulation: DSPE-MPEG(2000) was suspended in buffered saline at 50-100 mg/mL overnight. StAMP stock solutions at 5-20 mg/mL in buffered saline were prepared and equal volumes of micelle and StAMP stock solution were mixed at the desired StAMP:Lipid ratio. Suspensions were allowed to sit for 5-10 minutes at room temperature before being used in in vitro and in vivo assays. […]

A. baumannii = format: cell-based, Acinetobacter baumannii
Experimental: as §1, §2

Row | Minimum Inhibitory Concentration (MIC) S. aureus (S. aureus) [mg/L] | Minimum Inhibitory Concentration (MIC) K. pneumoniae (K. pneumoniae) [mg/L] | Minimum Inhibitory Concentration (MIC) E. coli (E. coli) [mg/L] | Minimum Inhibitory Concentration (MIC) P. aeruginosa (P. aeruginosa) [mg/L] | Minimum Inhibitory Concentration (MIC) A. baumannii (A. baumannii) [mg/L] | SMILES | IC50 at 48 hours (in vitro) [mg/L]
1 | >64 | 32 | 2 | 1 | 1 | CC(C)[C@@H]1NC(=O)[C@@](C)(NC(=O)[C@H](C)NC(=O)[C@H](CCCCN)NC(=O)CNC(=O)[C@H](Cc2ccccc2)NC(=O)[C@H](CCCCN)NC(=O)[C@H](CCCCN)NC(=O)[C@H](CCCCN)NC(=O)[C@H](CCCCN)NC(=O)[C@H](CCCCN)NC(=O)[C@]2(C)CCCC=CCCC[C@](C)(NC(=O)CN)C(=O)NCC(=O)N[C@@H](CCCCN)C(=O)N[C@@H](Cc3ccccc3)C(=O)N2)CCCC=CCCC[C@@](C)(C(=O)N[C@@H](C)C(=O)N[C@@H](CCCCN)C(=O)N[C@@H](CCCCN)C(=O)NCC(=O)NCC(=O)N[C@@H](CCC(=O)O)C(N)=O)NC(=O)[C@H](CCC(=O)O)NC(=O)[C@H](CO)NC1=O [compound 93] (H-G[S5]GKF[S5]KKKKKFGKA[S5]VSE[S5]AKKGGE-NH2; staple 2-6, 16-20) | > 200
2 | >64 | 32 | 8 | 16 | 4 | CC(C)[C@@H]1NC(=O)[C@@](C)(NC(=O)[C@H](C)NC(=O)[C@H](CCCCN)NC(=O)CNC(=O)[C@H](Cc2ccccc2)NC(=O)[C@H](CCCCN)NC(=O)[C@H](CCCCN)NC(=O)[C@H](CCCCN)NC(=O)[C@H](CCCCN)NC(=O)[C@H](CCCCN)NC(=O)[C@]2(C)CCCC=CCCC[C@](C)(NC(=O)CN)C(=O)NCC(=O)N[C@@H](CCCCN)C(=O)N[C@@H](Cc3ccccc3)C(=O)N2)CCCC=CCCC[C@@](C)(C(=O)N[C@@H](C)C(=O)N[C@@H](CCCCN)C(=O)N[C@@H](CCCCN)C(=O)NCC(=O)N[C@@H](CCC(=O)O)C(N)=O)NC(=O)[C@H](CCC(=O)O)NC(=O)CNC1=O [compound 53] (H-G[S5]GKF[S5]KKKKKFGKA[S5]VGE[S5]AKKGE-NH2; staple 2-6, 16-20) | 211 (≈ 76.7 µM)
3 | >64 | 32 | 8 | 8 | 4 | CC(C)[C@@H]1NC(=O)[C@@](C)(NC(=O)[C@H](C)NC(=O)[C@H](CCCCN)NC(=O)CNC(=O)[C@H](Cc2ccccc2)NC(=O)[C@H](CCCCN)NC(=O)[C@H](CCCCN)NC(=O)[C@H](CCCCN)NC(=O)[C@H](CCCCN)NC(=O)[C@H](CCCCN)NC(=O)[C@]2(C)CCCC=CCCC[C@](C)(NC(=O)CN)C(=O)NCC(=O)N[C@@H](CCCCN)C(=O)N[C@@H](Cc3ccccc3)C(=O)N2)CCCC=CCCC[C@@](C)(C(=O)N[C@@H](C)C(=O)N[C@@H](CCCCN)C(=O)N[C@@H](CCCCN)C(=O)NCC(=O)NCC(=O)NCC(=O)N[C@@H](CCC(=O)O)C(N)=O)NC(=O)[C@H](CCC(=O)O)NC(=O)CNC1=O [compound 54] (H-G[S5]GKF[S5]KKKKKFGKA[S5]VGE[S5]AKKGGGE-NH2; staple 2-6, 16-20) | 262 (≈ 91.5 µM)
4 | >64 | >64 | 64 | 32 | 64 | CC(C)[C@@H]1NC(=O)[C@@](C)(NC(=O)[C@H](C)NC(=O)[C@H](CCCCN)NC(=O)CNC(=O)[C@H](Cc2ccccc2)NC(=O)[C@H](CCCCN)NC(=O)[C@H](CCCCN)NC(=O)[C@H](CN)NC(=O)[C@H](CCCCN)NC(=O)[C@H](CN)NC(=O)[C@]2(C)CCCC=CCCC[C@](C)(NC(=O)CN)C(=O)NCC(=O)N[C@@H](CCCCN)C(=O)N[C@@H](Cc3ccccc3)C(=O)N2)CCCC=CCCC[C@@](C)(C(=O)N[C@@H](C)C(=O)N[C@@H](CCCCN)C(=O)N[C@@H](CCCCN)C(=O)NCC(=O)NCC(=O)N[C@@H](CCC(=O)O)C(N)=O)NC(=O)[C@H](CCC(=O)O)NC(=O)CNC1=O [compound 83] (H-G[S5]GKF[S5][Dap]K[Dap]KKFGKA[S5]VGE[S5]AKKGGE-NH2; staple 2-6, 16-20) | > 200
5 | 32 | 8 | 4 | 4 | 2 | CC(C)[C@@H]1NC(=O)[C@@](C)(NC(=O)[C@H](C)NC(=O)[C@H](CCCCN)NC(=O)CNC(=O)[C@H](Cc2ccccc2)NC(=O)[C@H](CCCCN)NC(=O)[C@H](CCN)NC(=O)[C@H](CCCCN)NC(=O)[C@H](CCCCN)NC(=O)[C@H](CCCCN)NC(=O)[C@]2(C)CCCC=CCCC[C@](C)(NC(=O)CN)C(=O)NCC(=O)N[C@@H](CCCCN)C(=O)N[C@@H](Cc3ccccc3)C(=O)N2)CCCC=CCCC[C@@](C)(C(=O)N[C@@H](C)C(=O)N[C@@H](CCCCN)C(=O)N[C@@H](CCCCN)C(N)=O)NC(=O)[C@H](CCC(=O)O)NC(=O)CNC1=O [compound 43] (H-G[S5]GKF[S5]KKK[Dab]KFGKA[S5]VGE[S5]AKK-NH2; staple 2-6, 16-20) | 127 (≈ 50.1 µM)
6 | >64 | 32 | 1 | 1 | 1 | CC(C)[C@@H]1NC(=O)[C@@](C)(NC(=O)[C@H](C)NC(=O)[C@H](CCCCN)NC(=O)CNC(=O)[C@H](Cc2ccccc2)NC(=O)[C@H](CCCCN)NC(=O)[C@H](CCCCN)NC(=O)[C@H](CCCCN)NC(=O)[C@H](CCCCN)NC(=O)[C@H](CN)NC(=O)[C@]2(C)CCCC=CCCC[C@](C)(NC(=O)CN)C(=O)NCC(=O)N[C@@H](CCCCN)C(=O)N[C@@H](Cc3ccccc3)C(=O)N2)CCCC=CCCC[C@@](C)(C(=O)N[C@@H](C)C(=O)N[C@@H](CCCCN)C(=O)N[C@@H](CCCCN)C(N)=O)NC(=O)[C@H](CCC(=O)O)NC(=O)[C@H](CO)NC1=O [compound 88] (H-G[S5]GKF[S5][Dap]KKKKFGKA[S5]VSE[S5]AKK-NH2; staple 2-6, 16-20) | 168 (≈ 65.8 µM)
7 | >64 | 4 | 2 | 4 | 2 | CC(C)[C@@H]1NC(=O)[C@@](C)(NC(=O)[C@H](C)NC(=O)[C@H](CCCCN)NC(=O)CNC(=O)[C@H](Cc2ccccc2)NC(=O)[C@H](CCCCN)NC(=O)[C@H](CCCCN)NC(=O)[C@H](CCCCN)NC(=O)[C@H](CCCCN)NC(=O)[C@H](CCCCN)NC(=O)[C@]2(C)CCCC=CCCC[C@](C)(NC(=O)CN)C(=O)NCC(=O)N[C@@H](CN)C(=O)N[C@@H](Cc3ccccc3)C(=O)N2)CCCC=CCCC[C@@](C)(C(=O)N[C@@H](C)C(=O)N[C@@H](CCCCN)C(=O)N[C@@H](CCCCN)C(N)=O)NC(=O)[C@H](CCC(=O)O)NC(=O)CNC1=O [compound 45] (H-G[S5]G[Dap]F[S5]KKKKKFGKA[S5]VGE[S5]AKK-NH2; staple 2-6, 16-20) | 104 (≈ 41.2 µM)
8 | 64 | 32 | 4 | 2 | 2 | CC(C)[C@@H]1NC(=O)[C@@](C)(NC(=O)[C@H](C)NC(=O)[C@H](CCCCN)NC(=O)CNC(=O)[C@H](Cc2ccccc2)NC(=O)[C@H](CCCCN)NC(=O)[C@H](CCCCN)NC(=O)[C@H](CCCCN)NC(=O)[C@H](CO)NC(=O)[C@H](CCCCN)NC(=O)[C@]2(C)CCCC=CCCC[C@](C)(NC(=O)CN)C(=O)NCC(=O)N[C@@H](CCCCN)C(=O)N[C@@H](Cc3ccccc3)C(=O)N2)CCCC=CCCC[C@@](C)(C(=O)N[C@@H](C)C(=O)N[C@@H](CCCCN)C(=O)N[C@@H](CCCCN)C(=O)NCC(=O)NCC(=O)N[C@@H](CCC(=O)O)C(N)=O)NC(=O)[C@H](CCC(=O)O)NC(=O)CNC1=O [compound 90] (H-G[S5]GKF[S5]KSKKKFGKA[S5]VGE[S5]AKKGGE-NH2; staple 2-6, 16-20) | > 200

Source: US20240174723A1, “STAPLED ANTIMICROBIAL PEPTIDES (STAMPS) AND USES THEREOF” (Lytica Therapeutics, Inc., priority 2021, published 2024)
